# Read-outs that look alike come from different tables or passages of the source.
# Assays:
# [1] = cited from earlier work
# human tumor xenografts = conditions: cited from earlier work
# [2] = system: human colon cancer xenografts; conditions: in vivo; cited from earlier work
# [3] = Experimental: Dehydration/desolvation studies were conducted by placing a sample under continuous vacuum at room temperature for 14 days. An XRPD pattern was obtained on the remaining solid and compared to the starting material.
# [4] = for Hygroscopicity: from moisture sorption 5 to 95% RH; for Weight % chg: 25 deg C
# Experimental: Moisture sorption/desorption data were collected on a VTI SGA-100 moisture balance system. […] The samples were not dried prior to analysis. Equilibrium criteria used for analysis were less than 0.0100 weight % change in 5 minutes with a maximum equilibration time of 3 hours if the weight criterion was not met. Data were not corrected for the initial moisture content of the samples.
# [5] = ground in an amalgamator for 10 minutes
# [6] = closed vial, 31 days, ambient conditions
# [7] = cited from earlier work; remark: listed apart in the source
# DNA topoisomerase I = molecular target: T1, DNA topoisomerase I (Homo sapiens, UniProt P11387); conditions: by stabilizing the cleavable complex; cited from earlier work
# T1 sequence (P11387 1-765): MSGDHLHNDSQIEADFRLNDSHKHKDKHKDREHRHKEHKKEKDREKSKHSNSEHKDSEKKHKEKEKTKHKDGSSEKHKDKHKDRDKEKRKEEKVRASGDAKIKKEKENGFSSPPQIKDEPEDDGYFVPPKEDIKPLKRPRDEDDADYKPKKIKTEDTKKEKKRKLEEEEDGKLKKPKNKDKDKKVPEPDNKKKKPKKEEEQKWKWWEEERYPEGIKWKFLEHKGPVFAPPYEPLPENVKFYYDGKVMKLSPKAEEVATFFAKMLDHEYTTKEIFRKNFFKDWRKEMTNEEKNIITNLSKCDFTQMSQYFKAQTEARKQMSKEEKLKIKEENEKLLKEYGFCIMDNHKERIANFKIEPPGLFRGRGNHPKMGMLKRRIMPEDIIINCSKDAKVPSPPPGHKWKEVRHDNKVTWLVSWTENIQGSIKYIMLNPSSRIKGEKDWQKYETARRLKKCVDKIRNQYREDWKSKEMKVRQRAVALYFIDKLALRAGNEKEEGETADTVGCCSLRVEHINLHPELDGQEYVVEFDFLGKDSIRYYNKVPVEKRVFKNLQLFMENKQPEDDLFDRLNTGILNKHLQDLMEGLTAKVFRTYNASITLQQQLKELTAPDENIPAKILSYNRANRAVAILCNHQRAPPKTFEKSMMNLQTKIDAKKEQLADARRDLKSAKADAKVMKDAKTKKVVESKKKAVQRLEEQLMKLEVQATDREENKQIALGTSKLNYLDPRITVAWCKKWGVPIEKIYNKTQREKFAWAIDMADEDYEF
compound,measurement,setting,value
CC[C@@](O)(C(=O)[O-])c1cc2n(c(=O)c1CO)Cc1cc3ccccc3nc1-2.[Na+] [Sodium camptothecin],Side effects in clinical trials,[1]; administered intravenously,myelosuppression and hemorrhagic cystitis
same,Antineoplastic activity in clinical trials,"[1]; solubilized by sodium hydroxide in water, early 1970's trials",found to have antineoplastic activity
"CC[C@@]1(O)C(=O)OCc2c1cc1n(c2=O)Cc2cc3c([N+](=O)[O-])cccc3nc2-1 [9-nitrocamptothecin, 9-nitro-20(S)-camptothecin]",Growth of human tumor xenografts,human tumor xenografts; immunodeficient nude mice,inhibited the growth
same,Activity against human tumor xenograft models,"human tumor xenografts; mouse, in vivo",high activity
same,Regression of established human tumors,human tumor xenografts; xenografts in nude mice,induced regression
"CC[C@@]1(O)C(=O)OCc2c1cc1n(c2=O)Cc2cc3cc4c(cc3nc2-1)OCO4 [10,11,MD, 10,11-methylendioxy-20(S)-camptothecin]",Anticancer activity against human colon cancer xenografts,[2],high anticancer activity
"CC[C@@]1(O)C(=O)OCc2c1cc1n(c2=O)Cc2cc3c(N)cccc3nc2-1 [Form 9AC, 9-Amino-20(S)-Camptothecin]",Anticancer activity against human colon cancer xenografts,[2],high anticancer activity
"CC[C@@]1(O)C(=O)OCc2c1cc1n(c2=O)Cc2cc3c([N+](=O)[O-])cccc3nc2-1 [Form C, 9-nitro-20(S)-camptothecin]",Change of form on desolvation under vacuum,[3],becomes amorphous
"CC[C@@]1(O)C(=O)OCc2c1cc1n(c2=O)Cc2cc3c([N+](=O)[O-])cccc3nc2-1 [Form A, 9-nitro-20(S)-camptothecin]",Hygroscopicity,[4],not hygroscopic
same,Change of crystallinity on grinding (XRPD),[5],losing crystallinity after grinding
"CC[C@@]1(O)C(=O)OCc2c1cc1n(c2=O)Cc2cc3c([N+](=O)[O-])cccc3nc2-1 [Form B, 9-nitro-20(S)-camptothecin]",Total weight gained in the region from 5 to 95% RH,[4]; 5 to 95% RH,2.21%
same,Weight % chg,"[4]; desorption, about 5% RH",−1.0408%
same,Weight % chg,"[4]; desorption, about 15% RH",−0.5118%
same,Weight % chg,"[4]; desorption, about 25% RH",−0.1151%
same,Weight % chg,"[4]; desorption, about 35% RH",0.1861%
same,Weight % chg,"[4]; desorption, about 45% RH",0.4359%
same,Weight % chg,"[4]; desorption, about 55% RH",0.6637%
same,Weight % chg,"[4]; desorption, about 65% RH",0.8473%
same,Weight % chg,"[4]; desorption, about 75% RH",1.0310%
same,Weight % chg,"[4]; desorption, about 85% RH",1.1706%
same,Water lost upon equilibration at 5% RH,[4]; equilibration at 5% RH,0.98%
same,Hygroscopicity,[4],relatively hygroscopic
same,Weight % chg,"[4]; sorption, about 5% RH",−0.9820%
same,Weight % chg,"[4]; sorption, about 15% RH",−0.4898%
same,Weight % chg,"[4]; sorption, about 25% RH",−0.1151%
same,Weight % chg,"[4]; sorption, about 35% RH",0.1788%
same,Weight % chg,"[4]; sorption, about 45% RH",0.4286%
same,Weight % chg,"[4]; sorption, about 55% RH",0.6416%
same,Weight % chg,"[4]; sorption, about 65% RH",0.8314%
same,Weight % chg,"[4]; sorption, about 75% RH",0.9869%
same,Weight % chg,"[4]; sorption, about 85% RH",1.1118%
same,Weight % chg,"[4]; sorption, about 95% RH",1.2293%
same,Weight % chg,"[4]; start, elapsed time 0.0 min",0.0000%
same,Stability of the crystalline polymorph on storage (XRPD pattern),[6],relatively stable
CC[C@@]1(O)C(=O)OCc2c1cc1n(c2=O)Cc2cc3ccccc3nc2-1 [Camptothecin],Water solubility,[7],poorly water soluble
same,Inhibition of DNA topoisomerase I,DNA topoisomerase I,inhibit DNA topoisomerase I

# From patent US6482830B1 (SuperGen, Inc., priority 2002, dated 2002)
